Experiments:
[1] = test system: MOLM-14 FLT3-ITD/D835Y; experiment: Cell viability assay (CellTiter-Glo, 72 h), MOLM-14 FLT3-ITD/D835Y; type: cell-based; details: Homo sapiens, mean of at least 3 assays
Experimental: (§1) The parental MOLM-14 cell line contained a FLT3-ITD mutation. Quizartinib-resistant MOLM-14 derivative cell lines MOLM-14 FLT3-ITD/D835Y and MOLM-14 FLT3-ITD/F691L contained a double FLT3 mutation (the original ITD mutation and a secondary mutation within the kinase domain).
(§2) All cells lines were cultured in RPMI 1640+GlutaMAX supplemented with 1× Pen-Strep and 10% FBS (referred to as media hereafter). Cells were cultured in 75 cm^2 or 225 cm^2 tissue culture flasks in a 37° C. humidified tissue culture incubator with 5% CO2. Cell densities were maintained between 0.5-2.0×10^6 cells/mL.
(§3) Two days before compound treatment, cells were pelleted and resuspended in fresh medium. The day of dosing, cells were counted and stained with trypan blue to determine cell viability. 5,000 viable cells were transferred in a volume of 90 μL or 135 μL per well to all wells of a 96-well tissue culture plate and returned to the tissue culture incubator. […]
(§4) After 72 h incubation, cell viability was assessed using the CellTiter-Glo Luminescent Cell Viability Assay (2.0) according to the vendor's instructions. […] Luminescence readings were measured using a TopCount384 instrument.
(§5) The percent inhibition of the compound treated samples was determined relative to the DMSO-treated cell control samples. […] The mean EC50 values from at least 3 independent viability assays performed on different days were determined.

[2] = test system: MV4-11 cell line; experiment: Anti-proliferative activity, MV4-11 cell line (Example 5, CellTiter Glo); type: cell-based; details: Homo sapiens, Example 5 procedure, 5,000 cells/well
Experimental: (§6) The same procedure was used for both the MV4-11 cells and MOLM-13 cells. Each cell line has an ITD mutation in the FLT-3 kinase.
(§7) The cells were grown to ˜80% confluence, split in half and grown overnight. The cells were seeded at a density of 5,000 cells/well in a volume of 150 μL into a 96-well black plate in all wells except columns 1 and 12 and rows A and H. They were incubated overnight in 10% serum and HBSS was added to wells on the periphery. In a deep 96-well plate, 1000 μL of 10% FBS was added into wells B2 and D2. 750 μL of 10% FBS, 1% DMSO medium per well was added in row B except well B2. 5 μL of 20 mM compound was added into well B2. 250 μL was transferred from column 2 to column 3 and mixed. The process was repeated until column G to give a 1:4 dilution. 15 μL of compound mixture was added to each well of the cell plate (135 μL volume).

[3] = test system: MOLM-14 FLT3-ITD tumors; experiment: MOLM-14 FLT3-ITD mouse xenograft tumor model; type: in vivo, athymic nude mice; details: 100 mg/kg orally once-daily, after 12 or 14 days of dosing
Source text: (§8) Compound A efficacy was compared to mice administered vehicle.

[4] = test system: MOLM-14 cell line (FLT3-ITD); experiment: Cell viability assay (CellTiter-Glo, 72 h), parental MOLM-14; type: cell-based; details: Homo sapiens, mean of at least 3 assays
Experimental: as §1, §2, §3, §4, §5

[5] = test system: MOLM-14 FLT3-ITD/D835Y tumors; experiment: MOLM-14 FLT3-ITD/D835Y mouse xenograft tumor model; type: in vivo, athymic nude mice; details: 100 mg/kg orally once-daily, after 12 or 14 days of dosing
Source text: as §8

[6] = test system: MV4-11 cells; experiment: AML xenograft model MV4-11, in vivo tumor growth inhibition
Experimental: ND-2158 at 100 mpk was used as a control.
MV4-11 cells were grown in Iscove's Modified Dulbecco's medium supplemented with 10% FBS and 1% penicillin streptomycin. To establish tumors, 15×10^6 MV4-11 cells were injected subcutaneously in 200 μl of 1:1 HBSS and ECM gel into the right flank of the athymic nude mice. Animals were randomized based on tumor volumes. […] Treatments were initiated when the average tumor volume sizes were 333 mm^3. Tumor volumes were measured three times a week and body weights were monitored daily.

[7] = test system: MOLM-14 FLT3-ITD/F691L; experiment: Cell viability assay (CellTiter-Glo, 72 h), MOLM-14 FLT3-ITD/F691L; type: cell-based; details: Homo sapiens, mean of at least 3 assays
Experimental: as §1, §2, §3, §4, §5

[8] = test system: MOLM-14 FLT3-ITD/F691L tumors; experiment: MOLM-14 FLT3-ITD/F691L mouse xenograft tumor model; type: in vivo, athymic nude mice; details: 100 mg/kg orally once-daily, after 12 or 14 days of dosing
Source text: as §8

[9] = test system: MOLM-13 cell line; experiment: Anti-proliferative activity, MOLM-13 cell line (Example 5, CellTiter Glo); type: cell-based; details: Homo sapiens, Example 5 procedure, 5,000 cells/well
Experimental: as §6, §7

[10] = test system: MV4-11 cells; experiment: MV4-11 CellTiter Glo cell viability/proliferation assay (Example 2); type: cell-based; details: Homo sapiens, procedure of Example 2, read-out: IC50, inhibition of proliferation in MV4-11 cells
Experimental: The CellTiter Glo Luminescent cell viability assay is a highly sensitive homogenous assay to determine the number of viable cells in culture based on quantitation of ATP levels in metabolically active cells. Addition of CTG reagent results in cell lysis and generation of a luminescent signal proportional to the amount of ATP present. The amount of ATP is proportional to the number of cells present. The luminescence is measured using a multilabel reader capable of measuring luminescence. An increase or decrease in cell numbers results in a concomitant change in luminescene level, indicating the effect of the test material on cellular proliferation.
CellTiter-Glo buffer was thawed and equilibrated to room temperature. Lyophilized CellTiter-Glo substrate was brought to room temperature. CTG reagent is prepared by mixing the CellTiter-Glo buffer (Promega Cat #G7572) into an amber bottle containing CellTiter-Glo substrate to reconstitute the lyophilized enzyme/substrate mixture. Both Buffer and the lyophilized substrate are supplied with the kit.
Add 1% Penicillin Streptomycin and 10% FBS to commercially available liquid IMDM (Iscove's Modified Dulbecco's Medium, Invitrogen Cat #12440046).
1. MV4-11 cells were counted and re-suspended to a density of 0.1×10^6 cells/ml in complete IMDM medium. 95 μL of this cell suspension was added per well of a 96-well plate (black plate with clear bottom) to seed ˜0.1×10^5 cells per well. The plates were incubated at 37° C. under a humidified atmosphere of 5% CO2 for ˜2 hours before compound addition. 2. Test compounds were dissolved in 100% DMSO to generate a 2/6/10/20 mM stock solution. A 200× concentration of the required final concentrations was prepared in DMSO. 10 μL of each concentration (200×) was then diluted in 90 μL of serum-free IMDM to prepare an intermediate concentration of 20× in medium. The DMSO concentration in this step was 10% (Intermediate dilution). 5 μL of each intermediate dilution was then added in triplicates to cells previously seeded in 96-well plate. The final DMSO concentration was 0.5% in the experimental wells. Cells treated with 0.5% DMSO served as a positive control. 100 μL of complete IMDM medium served as media blank for data analysis. 200 μL of 1×PBS was added in all corner wells of the assay plate to avoid evaporation of media in experimental wells. Plates were then incubated for 72 hours in an incubator with 5% CO2 at 37° C. 3. To terminate the assay, 50 μL of CTG reagent was added to each well and the plate was incubated at room temperature for 15 minutes on a shaker. The plate was read using the luminescence mode on a multilabel reader capable of measuring luminescence. The luminescence values were plotted against respective concentrations of the test item using GraphPad Prism to calculate the IC50 value for the test item. Percent Inhibition is Calculated as Follows: […]
Positive control wells contained cells, IMDM medium and 0.5% DMSO. Blank control wells contained IMDM medium alone.

In the case of `Cc1cc(-c2nc(C(=O)Nc3cc4oc(N5CCOCC5)nc4nc3N3CC[C@@H](O)C3)co2)ccn1` [Compound A], the EC50 [1] is reported as 108 nM, the IC50 [2] is reported as 70 nM and the “percent tumor growth inhibition (% TGI)” value [3] is reported as 90%. The EC50 [4] was 58 nM, the “percent tumor growth inhibition (% TGI)” value [5] was 98% and the tumor growth inhibition ([6]; 12.5 mg/kg orally once daily, 21 days) was 92%. For the same compound, the tumor response ([6]; 25 mg/kg orally once daily, 21 days) was “partial tumor regression”, the tumor response ([6]; 50 mg/kg orally once daily, 21 days) was “partial tumor regression” and the “tolerability (clinical signs, gross pathological changes)” value ([6]; 12.5, 25, and 50 mg/kg orally once daily, 21 days) was “well tolerated without any treatment related clinical signs and gross pathological changes”. The tumor response ([6]; 12.5 mpk, after 21 days of treatment) was “Tumor growth stasis”, the body weight ([6]; all treatment groups, 21 days, FIG. 4) was “No body weight reduction was observed” and the EC50 [7] was 2490 nM. For the same compound, the “percent tumor growth inhibition (% TGI)” value [8] was 73%, the IC50 [9] was 190 nM and the IC50 [10] was 31 nM.
